Here are results for 3 compounds from PMC3368197, “Noncytotoxic and Antitumour-Promoting Activities of Garcinia Acid Esters from Garcinia atroviridis Griff. ex T. Anders (Guttiferae)” (Evidence-based Complementary and Alternative Medicine : eCAM, 2012).

Series [1] has as its system Epstein-Barr virus early antigen (EBV-EA) activation. Kind of series: In vitro antitumour-promoting assay: inhibition of EBV early antigen activation in Raji cells. The series is classed as cell-based. The conditions noted are these: for IC50: human gammaherpesvirus 4, Raji cells, 3 mM sodium n-butyrate + 50 nM PMA, 48 h. Here is the method: The inhibition of Epstein-Barr virus (EBV) activation was used to evaluate in vitro antitumour-promoting activity. Raji cells were incubated for 48 h at 37°C under 5% CO2 in 1 mL (~5 × 10^5 cells) of RPMI-1640 medium containing 3 mM sodium n-butyrate ([…] Tesque, Japan), 50 nM phorbol 12-myristate 13-acetate (PMA) (Sigma, USA) and the test compounds (600 μM) per well of a 24-well plate. Conventional indirect immunofluorescence staining of early antigen (EA) with high-titre EA-positive serum (EA titre 1 : 1,280) obtained from nasopharyngeal carcinoma (NPC) patients (1 : 20 serum dilution) followed by a 1 : 30 dilution of fluorescein-isothiocyanate-(FITC-)labeled IgG (Sigma, USA) was used to measure EBV activation. The ratio of EA-induced cells to the control experiments only with sodium n-butyrate and PMA was around 50%. The test compounds showing antitumour-promoting activity were serially diluted (2-fold) to determine the IC50 values.

Series [2] concerns CEM-SS (human T-lymphoblastic leukemia) cells. Kind of series: MTT cytotoxicity assay. The series is classed as cell-based. The conditions noted are these: 72 h. Here is the method: The CEM-SS (human T-lymphoblastic leukemia) cell line was obtained from the National Cancer Institute, USA, and the Raji (human B-lymphoblastoid) cell line was provided by Prof. K. Koshimizu, Kinki University, Japan. Cells were cultured in RPMI-1640 (Sigma, USA) medium with 10% v/v foetal calf serum (Sera Lab, UK), 100 IU/mL penicillin (Sigma, USA) and 100 μg/mL streptomycin (Sigma, USA) as a complete growth medium (CGM). Cells were maintained in 25 cm^2 flask with 10 mL of CGM at 37°C with 5% CO2. Every three days the cells were subcultured by splitting the culture with fresh CGM at a ratio of 1 : 4 [10].
Cytotoxicity was determined using the MTT assay as reported by Ali et al.. Varying concentrations of the test compounds were prepared from the stock solutions by serial dilution in RPMI-1640 to give a volume of 100 μL in each well of a microtiter plate (96-well) as described before. Each well was filled with 100 μl of CEM-SS cell suspension in CGM at 1-2 × 10^5 cells/mL. Controls that contained only CEM-SS cells were included for each sample. The assay for each concentration of extract was performed in triplicate and the culture plates were kept at 37°C with 5% (v/v) CO2 for three days. After 72 h of incubation, 100 μL of medium was removed from each well. […] Absorbance values at 550 nm were measured with a microplate reader (Bio Tek EL 340, USA) after background subtraction at 630 nm. […]

For series [3], the system named is Brine shrimp (Artemia saline Leach). Kind of series: Brine shrimp lethality/toxicity assay. The conditions noted are these: brine shrimp nauplii, preliminary test concentration 300 μM. The class given is in vivo. Here is the method:
Brine shrimp (Artemia saline Leach) eggs (Gold Eagle, USA) were placed in a hatching tank containing sea water for 48 h. Each compound (6 μmol) was dissolved in 0.2 mL methylene chloride:methanol (1 : 1) to prepare a stock solution of 30 mM. From the stock solutions, 50 μL was transferred to different vials and allowed to evaporate. After evaporation, 5 mL of brine was added to each vial in triplicate to prepare a preliminary test concentration corresponding to 300 μM. Ten shrimp nauplii were added to each vial (30 shrimps per concentration). The number of survivors out of 30 shrimps per concentration was recorded.

Series [4] is described as follows: DPPH radical scavenging method. The conditions noted are these: 0.3 mM, 30 min. The procedure:
The methanol solution of 2,2-diphenyl-1-picrylhydrazyl hydrate (DPPH) (Aldrich Chem. Co., USA) radicals (1 mL, 0.3 mM) was added to each sample (1 mM, 0.5 mL) and was shaken vigorously. The absorbance of each sample was measured at 517 nm after allowing it to stand for 30 min. Each sample (final concentration, 0.3 mM) was assayed in triplicate and averaged. Standard antioxidants, that is, butylated hydroxytoluene (BHT) and ascorbic acid, were used as positive controls.

Series [5] has as its system Epstein-Barr virus early antigen (EBV-EA) activation. More on the design: method as in PMID 9247600, PMID 22140296. To be noted: known antitumour promoter; read-out: IC50, inhibition of EBV activation; cited from earlier work.

Each structure is given as a SMILES string. Where two headings read alike, the source gives them in different places. A value given as a limit tells only on which side of the number the result lay.

As for `CCCCOC(=O)CC1(O)C(=O)OC1C(=O)OCCCC` (stereo not shown) [Compound 1, 2-(butoxycarbonylmethyl)-3-butoxycarbonyl-2-hydroxy-3-propanolide], the half-inhibitory concentration (IC50) in series [1] was found to be 70 µM. The “fold higher antitumour-promoting activity than compound 2” value in series [1] (ratio of EBV-EA IC50 values) is recorded as 8 fold. The CD50 in series [2] was more than 100 µM. This compound displayed a 50% lethal concentration (LC50) in series [3] of more than 300 µM. Moreover, the “Radical scavenging (%), DPPH assay” value in series [4] is 3.4%.
Consider `CCCCOC(=O)CC(O)(C(=O)OC)C(O)C(=O)OCCCC` (stereo not shown) [Compound 2, 1′,1′′-dibutyl methyl hydroxycitrate], for which the 50% inhibitory concentration (IC50) in series [1] was 560 µM. In series [2], this compound displayed a CD50 of more than 100 µM. This compound registered an LC50 in series [3] of more than 300 µM. The “Radical scavenging (%), DPPH assay” value in series [4] is reported as 5.5%.
On to `O=c1c(-c2ccc(O)cc2)coc2cc(O)cc(O)c12` [genistein], for which the half-inhibitory concentration (IC50) in series [5] is approximately 20 µM.
